This is an account of results in US11268069B2, “Reprogramming methods and cell culture platforms” (Fate Therapeutics, Inc., priority 2014, dated 2022).

The subject of the experiment is hiPSC clone FTi111. Put plainly: Thaw of hiPSC clone FTi111 into various culture environments. Particulars: conventional culture with feeder cells. Type of experiment: cell-based, human.

In the case of `O=C(NCc1ccccc1)c1csc(Nc2ccncn2)n1` [Thiazovivin], the “recovery of hiPSC colonies post thaw” value is “only recovered in the presence of Thiazovivin”.
